Data reported in patent US20220401381A1, “PERIPHERALLY ACTING CANNABIDIOL (CBD)-CONTAINING COMPOUNDS AND USES THEREOF FOR ENHANCING FEMALE SEXUAL FUNCTION OR TREATING FEMALE SEXUAL DISORDERS” (Vella Bioscience, Inc., priority 2019, published 2022).
Entries after “also recorded” stand apart in the source; their conditions may differ.

How the values were obtained:
[1] = test system: rat vaginal smooth muscle tissue (intact/sham rats); assay: EFS-induced contraction of vaginal strips from intact/sham rats, isolated organ bath, isometric tension
Source text: (§1) The following in vitro methodology was utilized to examine the concentration-dependent response of rat vaginal tissue, both proximal and distal, to CBD following contraction by electrical field stimulation (similar to efferent neurostimulation in vivo)
(§2) Female rats either intact (n=6) or bilaterally oophorectomized (OVX) (n=6 rats); the animals were euthanized 6 weeks post OVX and vagina dissected. Then, the vagina was cut into 2 halves, proximal and distal, and 4 strips max per region cut in circular direction were prepared and mounted as shown in FIG. 1.
(§3) The strips were excised from the tissue samples and connected to force transducers for isometric tension recording. Organ baths were filled with Krebs buffer maintained at 37° C. and bubbled with 95% O2 and 5% CO2, pH 7.4.
(§4) Female rats without (n=6) prior bilateral oophorectomies were euthanized and the proximal and distal vaginal tissue was harvested and suspended in a classic organ bath infused at a physiological temperature, pH, and oxygen level. […] This was also true regardless of whether the tissue was from the proximal or distal vaginal tissue (FIG. 2(A-E)).

[2] = test system: rat vaginal smooth muscle tissue (OVX rats); assay: EFS-induced contraction of vaginal strips from oophorectomized (OVX) rats, isolated organ bath, isometric tension
Source text: as §1, §2, §3
as §4, with “with” for “without”, “3(A-E)).” for “2(A-E)).”

[3] = subcutaneous injection 45 minutes prior to sexual activity; cited from earlier work

| Structure (SMILES) | relaxation (inhibition of EFS-induced contraction) of vaginal strips ([1]; intact/sham (non-oophorectomized) rats, proximal or distal tissue, CBD 1, 10 and 100 μg/ml, EFS 1 Hz to 48 Hz, vs vehicle) | relaxant effect on distal vaginal smooth muscle tissue ([1]; intact/sham rat, distal, FIG. 4B) | relaxant effect on proximal vaginal smooth muscle tissue ([1]; intact/sham rat, proximal, FIG. 4A) | relaxant effect on distal vaginal smooth muscle tissue ([2]; OVX rat, distal, FIG. 5B) | relaxant effect on proximal vaginal smooth muscle tissue ([2]; OVX rat, proximal, FIG. 5A) | relaxation (inhibition of EFS-induced contraction) of vaginal strips ([2]; oophorectomized (OVX) rats, proximal or distal tissue, CBD 1, 10 and 100 μg/ml, EFS 1 Hz to 48 Hz, vs vehicle) | side-effect: nausea, incidence [3] |
| --- | --- | --- | --- | --- | --- | --- | --- |
| C=C(C)[C@@H]1CCC(C)=C[C@H]1c1c(O)cc(CCCCC)cc1O [CBD, (−)-trans-cannabidiol] | dramatic and significant dose-response relaxation; also recorded: significant relaxant effect | statistically significant, unexpected, peripheral, dose-dependent pharmacological relaxant effect | statistically significant, unexpected, peripheral, dose-dependent pharmacological relaxant effect | statistically significant, unexpected, peripheral, dose-dependent pharmacological relaxant effect | statistically significant, unexpected, peripheral, dose-dependent pharmacological relaxant effect | dramatic and significant dose-response relaxation; also recorded: significant relaxant effect |  |
| CCCC[C@H](NC(C)=O)C(=O)N[C@H]1CC(=O)NCCCC[C@@H](C(=O)O)NC(=O)[C@H](Cc2c[nH]c3ccccc23)NC(=O)[C@H](CCCN=C(N)N)NC(=O)[C@@H](Cc2ccccc2)NC(=O)[C@H](Cc2cnc[nH]2)NC1=O [bremelanotide] |  |  |  |  |  |  | 40% |
